What was measured:
Assay type in all cases: biochemical
CYP1A2 = biological target: T1, CYP1A2 (Homo sapiens, UniProt P05177); experiment: Cocktail assay for CYPs, phenacetin O-deethylation (CYP1A2), human liver microsomes; settings: 10 μM phenacetin, 0.1 mg/mL human liver microsomes, 10 min at 37° C.; read-out: CYP IC50 (nM) 1A2
T1 construct: 0.1 mg/mL protein human liver microsomes (BD Gentest); tissue BD Gentest; host or cells: human liver microsomes
T1 sequence (P05177 1-516): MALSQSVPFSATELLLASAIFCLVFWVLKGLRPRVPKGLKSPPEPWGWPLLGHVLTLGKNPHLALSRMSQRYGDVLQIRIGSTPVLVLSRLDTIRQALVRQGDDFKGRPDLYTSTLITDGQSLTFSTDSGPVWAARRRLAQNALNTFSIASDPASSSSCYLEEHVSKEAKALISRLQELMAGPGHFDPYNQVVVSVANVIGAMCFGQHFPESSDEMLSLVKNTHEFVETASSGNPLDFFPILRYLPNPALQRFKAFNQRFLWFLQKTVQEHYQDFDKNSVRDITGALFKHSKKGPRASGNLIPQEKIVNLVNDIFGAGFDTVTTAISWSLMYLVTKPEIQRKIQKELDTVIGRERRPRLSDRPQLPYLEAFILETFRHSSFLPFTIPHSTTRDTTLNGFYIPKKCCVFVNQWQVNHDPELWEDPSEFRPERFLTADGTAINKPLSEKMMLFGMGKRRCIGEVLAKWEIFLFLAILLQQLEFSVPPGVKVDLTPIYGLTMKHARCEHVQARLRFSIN
Method: (§1) Determination of IC50 in a Cocktail Assay for CYPs 1A2, 2C9, 2C19, 2D6 and 3A4:
(§2) This assay was performed in a standard 96-well plate design. IC50 values were calculated from the percent inhibition observed for each test compound at 6 concentrations (for example, 0.0032, 0.016, 0.08, 0.4, 2 and 10 μM). The incubation substrate mix contains 10 μM phenacetin (1A2), 5 μM diclofenac (2C9), 30 μM mephenytoin (2C19), 5 μM dextromethorphan (2D6) and 2 μM midazolam (3A4), 0.1 mg/mL protein human liver microsomes (BD Gentest), 1 mM NAPDH, 3.3 mM MgCl2 and 100 mM potassium phosphate buffer (pH 7.4). The production of the metabolite of each probe substrate was determined after incubation for 10 min at 37° C. Quantitation of the metabolite peak area ratio against an internal standard (tolbutamide) was determined by LC/MS/MS analysis following acetonitrile treatment of the incubations.
(§3) Samples were analyzed in the MRM mode with a SCIEX API-4000 mass spectrometer (Applied Biosystems, Foster City, Calif.), with a Shimadzu LC-20 AD pump (Shimadzu corporation, Kyoto, JP) and a CTC PAL autosampler (Agilent Technologies, Switzerland). A Phenomenex, Luna, 5 nm, 100 A, 2.00×30 mm HPLC column was used for the separation. The mobile phases were: (A) 0.1% formic acid in water and (B) 0.1% formic acid in acetonitrile. The binary gradient was as follows.
(§4) The peak area ratio of the analyte to the internal standard was used to quantify the metabolite. The values of peak area ratios in the presence of test compound were compared to those of maximum or minimum controls and were expressed as % inhibition by interpolating between the maximum and minimum peak area ratios. Incubations with no inhibitor were defined as the maxima. The following equation was used to calculate the % inhibition: [1−[(X−Low control)/(High control−Low control)]]*100 For the IC50 calculation, SigmaPlot was used to plot the mean % inhibition versus the test compound concentrations and for non-linear regression analysis of the data. Depending on the range of data points defining the inhibition curve, the data may have been fit to the 4-parameter logistic equation.

CYP2C19 = biological target: T2, CYP2C19 (Homo sapiens, UniProt P33261); experiment: Cocktail assay for CYPs, mephenytoin 4′-hydroxylation (CYP2C19), human liver microsomes; settings: 30 μM mephenytoin, 0.1 mg/mL human liver microsomes, 10 min at 37° C.; read-out: CYP IC50 (nM) 2C19
T2 construct: 0.1 mg/mL protein human liver microsomes (BD Gentest); tissue BD Gentest; host or cells: human liver microsomes
Method: as §1
as §2, with “IC50 values were calculated from the percent inhibition observed for each test compound at 6 concentrations (for example, 0.0032, 0.016, 0.08, 0.4, 2 and 10 μM).” left out
as §3, §4

CYP2D6 = biological target: T3, CYP2D6 (Homo sapiens, UniProt P10635); experiment: Cocktail assay for CYPs, dextromethorphan O-demethylation (CYP2D6), human liver microsomes; settings: 5 μM dextromethorphan, 0.1 mg/mL human liver microsomes, 10 min at 37° C.; read-out: CYP IC50 (nM) 2D6
T3 construct: 0.1 mg/mL protein human liver microsomes (BD Gentest); tissue BD Gentest; host or cells: human liver microsomes
Method: as §1, §2, §3, §4

CYP3A4 [1] = biological target: T4, CYP3A4 (Homo sapiens, UniProt P08684); experiment: Cocktail assay for CYPs, midazolam 1′-hydroxylation (CYP3A4), human liver microsomes; set-up: 0.1 mg/mL protein human liver microsomes (BD Gentest); tissue BD Gentest; host or cells: human liver microsomes; settings: 2 μM midazolam, 0.1 mg/mL human liver microsomes, 10 min at 37° C.; read-out: CYP IC50 (nM) 3A4 (MDZ)
Method: as §1, §2, §3, §4
Target sequence in this assay (P08684 whole entry): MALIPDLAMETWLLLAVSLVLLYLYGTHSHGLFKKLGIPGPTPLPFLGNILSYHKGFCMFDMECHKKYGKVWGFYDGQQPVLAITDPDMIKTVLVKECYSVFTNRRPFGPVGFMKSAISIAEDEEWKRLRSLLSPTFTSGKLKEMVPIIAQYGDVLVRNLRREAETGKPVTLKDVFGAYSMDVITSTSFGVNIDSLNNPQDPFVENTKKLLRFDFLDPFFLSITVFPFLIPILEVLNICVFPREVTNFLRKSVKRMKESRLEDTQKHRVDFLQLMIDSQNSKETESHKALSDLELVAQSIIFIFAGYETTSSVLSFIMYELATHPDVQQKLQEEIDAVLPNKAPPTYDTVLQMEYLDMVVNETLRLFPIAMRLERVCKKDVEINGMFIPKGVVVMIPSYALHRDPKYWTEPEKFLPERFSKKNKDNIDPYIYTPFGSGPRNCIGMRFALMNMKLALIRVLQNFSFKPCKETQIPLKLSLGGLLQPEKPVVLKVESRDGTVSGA

CYP3A4 [2] = biological target: T4, CYP3A4; experiment: IC50 vs CYP3A by inhibition of lopinavir metabolism in human liver microsomes; set-up: 0.01 mg/mL protein human liver microsomes (BD Gentest); tissue BD Gentest; host or cells: human liver microsomes; settings: 1.5 μM lopinavir, 0.01 mg/mL human liver microsomes, 8 min at 37° C.; read-out: CYP IC50 (nM) 3A4 (LPV)
Method: Determination of IC50 vs CYP3A by Measurement of Inhibition of Lopinavir Metabolism
This assay was performed in a standard 96-well plate design. IC50 values were calculated from the percent inhibition observed for each test compound at 6 concentrations (for example, 0.098, 0.391, 1.56, 6.25, 25 and 100 nM). The incubation substrate mix contains 1.5 μM lopinavir, 0.01 mg/mL protein human liver microsomes (BD Gentest), 1 mM NAPDH, 3.3 mM MgCl2 and 100 mM potassium phosphate buffer (pH 7.4). The production of the sum of three hydroxylated metabolites (M2: 6-hydroxy lopinavir, M3: 4-hydroxy lopinavir, M4: 4-hydroxy lopinavir (epimer of M3), Kumar et al., 1999) was determined after incubation for 8 min at 37° C. Quantitation of the metabolite peak area ratio against an internal standard (tolbutamide) was determined by LC/MS/MS analysis following acetonitrile treatment of the incubations.
as §3, with “μm,” for “nm,”
Target sequence in this assay (P08684 2-503): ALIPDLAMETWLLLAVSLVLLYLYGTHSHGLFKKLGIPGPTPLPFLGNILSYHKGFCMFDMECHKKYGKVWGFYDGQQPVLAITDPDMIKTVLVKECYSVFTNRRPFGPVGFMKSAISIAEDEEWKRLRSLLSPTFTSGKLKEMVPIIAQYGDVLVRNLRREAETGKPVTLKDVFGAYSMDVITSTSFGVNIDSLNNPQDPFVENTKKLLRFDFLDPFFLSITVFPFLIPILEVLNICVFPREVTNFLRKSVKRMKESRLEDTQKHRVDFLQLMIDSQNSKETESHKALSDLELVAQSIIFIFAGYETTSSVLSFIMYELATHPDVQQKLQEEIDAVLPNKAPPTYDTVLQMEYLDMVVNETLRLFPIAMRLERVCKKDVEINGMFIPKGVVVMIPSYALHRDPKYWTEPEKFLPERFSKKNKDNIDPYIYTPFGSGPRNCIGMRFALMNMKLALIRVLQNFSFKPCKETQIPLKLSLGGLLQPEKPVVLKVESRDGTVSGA
The peak area ratio of the analyte to the internal standard was used to quantify the metabolite. The values of peak area ratios in the presence of test compound were compared to those of maximum or minimum controls and were expressed as % inhibition by interpolating between the maximum and minimum peak area ratios. Incubations with no inhibitor were defined as the maxima and with 5 μM ketoconazole were defined as the minima.
The following equation was used to calculate the % inhibition: [1−[(X−Low control)/(High control−Low control)]]*100
For the IC50 calculation, SigmaPlot was used to plot the mean % inhibition versus the test compound concentrations and for non-linear regression analysis of the data. Depending on the range of data points defining the inhibition curve, the data may have been fit to the 4-parameter logistic equation.

CYP2C9 = biological target: T5, CYP2C9 (Homo sapiens, UniProt P11712); experiment: Cocktail assay for CYPs, diclofenac 4′-hydroxylation (CYP2C9), human liver microsomes; settings: 5 μM diclofenac, 0.1 mg/mL human liver microsomes, 10 min at 37° C.; read-out: CYP IC50 (nM) 2C9
T5 construct: 0.1 mg/mL protein human liver microsomes (BD Gentest); tissue BD Gentest; host or cells: human liver microsomes
Method: as §1
as §2, with “IC50 values were calculated from the percent inhibition observed for each test compound at 6 concentrations (for example, 0.0032, 0.016, 0.08, 0.4, 2 and 10 μM).” left out
as §3, §4

T2 sequence (P33261 whole entry): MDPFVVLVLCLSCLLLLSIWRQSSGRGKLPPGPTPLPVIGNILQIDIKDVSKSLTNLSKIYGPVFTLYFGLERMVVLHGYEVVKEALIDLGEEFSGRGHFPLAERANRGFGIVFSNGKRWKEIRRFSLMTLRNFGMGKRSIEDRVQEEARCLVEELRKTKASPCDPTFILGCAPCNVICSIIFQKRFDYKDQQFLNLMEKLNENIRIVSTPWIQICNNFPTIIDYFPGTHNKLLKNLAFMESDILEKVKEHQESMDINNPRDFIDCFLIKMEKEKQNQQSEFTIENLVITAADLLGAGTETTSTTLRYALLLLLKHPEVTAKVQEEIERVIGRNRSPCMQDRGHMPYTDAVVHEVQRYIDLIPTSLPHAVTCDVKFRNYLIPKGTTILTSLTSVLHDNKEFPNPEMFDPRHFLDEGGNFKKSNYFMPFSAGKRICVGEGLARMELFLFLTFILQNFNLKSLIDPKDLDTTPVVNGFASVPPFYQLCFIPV
T3 sequence (P10635 whole entry): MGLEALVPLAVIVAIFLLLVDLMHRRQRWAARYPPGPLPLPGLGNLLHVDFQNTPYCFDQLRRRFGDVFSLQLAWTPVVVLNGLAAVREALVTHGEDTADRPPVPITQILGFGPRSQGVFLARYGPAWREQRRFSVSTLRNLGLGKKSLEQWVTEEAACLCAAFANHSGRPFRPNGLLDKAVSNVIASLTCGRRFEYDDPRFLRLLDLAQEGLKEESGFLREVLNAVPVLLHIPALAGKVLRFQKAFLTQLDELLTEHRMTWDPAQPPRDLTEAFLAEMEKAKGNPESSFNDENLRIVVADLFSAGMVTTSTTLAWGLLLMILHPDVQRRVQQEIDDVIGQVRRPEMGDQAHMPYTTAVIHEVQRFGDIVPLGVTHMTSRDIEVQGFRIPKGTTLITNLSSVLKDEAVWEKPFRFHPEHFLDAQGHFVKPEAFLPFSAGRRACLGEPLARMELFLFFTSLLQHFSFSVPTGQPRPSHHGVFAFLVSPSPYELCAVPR
T5 sequence (P11712 whole entry): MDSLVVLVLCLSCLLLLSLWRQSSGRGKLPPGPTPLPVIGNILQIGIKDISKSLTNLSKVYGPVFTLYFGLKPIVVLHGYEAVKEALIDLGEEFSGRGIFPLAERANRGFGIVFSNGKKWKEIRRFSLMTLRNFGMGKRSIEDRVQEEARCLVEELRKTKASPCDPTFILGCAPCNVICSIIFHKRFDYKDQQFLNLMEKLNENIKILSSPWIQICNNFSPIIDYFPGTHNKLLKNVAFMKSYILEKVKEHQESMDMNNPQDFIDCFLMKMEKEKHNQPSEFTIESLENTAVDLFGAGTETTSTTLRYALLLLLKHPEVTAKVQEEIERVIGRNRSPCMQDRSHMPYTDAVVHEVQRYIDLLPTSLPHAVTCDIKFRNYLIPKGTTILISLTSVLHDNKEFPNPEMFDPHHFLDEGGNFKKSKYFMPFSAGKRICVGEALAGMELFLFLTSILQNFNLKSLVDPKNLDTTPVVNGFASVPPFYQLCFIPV

| SMILES | IC50 (CYP1A2) | IC50 (CYP2C19) | IC50 (CYP2D6) | IC50 (CYP3A4 [1]) | IC50 (CYP3A4 [2]) | IC50 (CYP2C9) |
| --- | --- | --- | --- | --- | --- | --- |
| O=S(=O)(c1cnc(N2CCN3C[C@H](O)C[C@H]3C2)s1)N1CCCC1c1ccccc1-c1cncn1CCc1ccc(F)cc1 (single isomer, unassigned) [Compound 22a, (7R,8aS)-2-(5-(((R or S)-2-(2-(1-(4-fluoro-phenethyl)-1H-imidazol-5-yl)phenyl)pyrrolidin-1-yl)sulfonyl)thiazol-2-yl) octahydro-pyrrolo[1,2-a] pyrazin-7-ol] | 7020 nM | > 10000 nM | 3940 nM | 5.3 nM | 1.4 nM | 6300 nM |
| O=S(=O)(c1cnc(N2CCN3C[C@H](O)C[C@H]3C2)s1)N1CCCC1c1ccccc1-c1cncn1CCc1ccc(F)cc1 (single isomer, unassigned) [Compound 22b, (7R,8aS)-2-(5-(((R or S)-2-(2-(1-(4-fluoro-phenethyl)-1H-imidazol-5-yl)phenyl)pyrrolidin-1-yl)sulfonyl)thiazol-2-yl) octahydro-pyrrolo[1,2-a] pyrazin-7-ol] | > 10000 nM | > 10000 nM | 4620 nM | 9.6 nM | 4.5 nM | 1690 nM |
| CS(=O)(=O)N1CCCC1c1ccccc1-c1cncn1CCc1ccc(F)cc1 (single isomer, unassigned) [Compound 23a, (R or S)-1-(4-fluorophenethyl)-5-(2-(1-(methylsulfonyl)pyrrolidin-2-yl)phenyl)-1H-imidazole] | > 10000 nM | 6920 nM | 6720 nM | 36.4 nM | 58.5 nM | > 10000 nM |
| CS(=O)(=O)N1CCCC1c1ccccc1-c1cncn1CCc1ccc(F)cc1 (single isomer, unassigned) [Compound 23b, (R or S)-1-(4-fluorophenethyl)-5-(2-(1-(methylsulfonyl)pyrrolidin-2-yl)phenyl)-1H-imidazole] | > 10000 nM | > 10000 nM | > 10000 nM | 17 nM | 17.2 nM | > 10000 nM |
| CN(C)c1ccc(S(=O)(=O)N2CCCC2c2ccccc2-c2cncn2CCc2ccc(F)cc2)cn1 (single isomer, unassigned) [Compound 28a, (R or S)-5-((2-(2-(1-(4-fluorophenethyl)-1H-imidazol-5-yl)phenyl)pyrrolidin-1-yl)sulfonyl)-N,N-dimethylpyridin-2-amine] | > 10000 nM | 2390 nM | 6990 nM | 3.5 nM | 0.7 nM | 1520 nM |
| CN(C)c1ccc(S(=O)(=O)N2CCCC2c2ccccc2-c2cncn2CCc2ccc(F)cc2)cn1 (single isomer, unassigned) [Compound 28b, (R or S)-5-((2-(2-(1-(4-fluorophenethyl)-1H-imidazol-5-yl)phenyl)pyrrolidin-1-yl)sulfonyl)-N,N-dimethylpyridin-2-amine] | > 10000 nM | 4980 nM | > 10000 nM | 11.8 nM | 10.1 nM | 1150 nM |
| O=S(=O)(c1ccc(N2CCC(O)CC2)nc1)N1CCCC1c1ccccc1-c1cncn1CCc1ccc(F)cc1 (single isomer, unassigned) [Compound 32, (R or S)-1-(5-((2-(2-(1-(4-fluorophenethyl)-1H-imidazol-5-yl)phenyl)pyrrolidin-1-yl)sulfonyl)pyridin-2-yl) piperidin-4-ol] | > 10000 nM | 3410 nM | 5820 nM | 4.2 nM | 0.7 nM | 3720 nM |
| O=S(=O)(c1ccc(N2CCC(O)CC2)nc1)N1CCCC1c1ccccc1-c1cncn1CCc1ccc(F)cc1 (single isomer, unassigned) [Compound 33, (R or S)-1-(5-((2-(2-(1-(4-fluorophenethyl)-1H-imidazol-5-yl)phenyl)pyrrolidin-1-yl)sulfonyl)pyridin-2-yl) piperidin-4-ol] | > 10000 nM | > 10000 nM | 6500 nM | 22.5 nM | 12.6 nM | 2890 nM |
| CN1CCCC1c1ccccc1-c1cncn1CCc1ccc(F)cc1 (single isomer, unassigned) [Compound 45a, (R or S)-1-(4-fluorophenethyl)-5-(2-(1-methylpyrrolidin-2-yl)phenyl)-1H-imidazole] | > 10000 nM | 7790 nM | 4220 nM | 14.3 nM |  | > 10000 nM |
| CN1CCCC1c1ccccc1-c1cncn1CCc1ccc(F)cc1 (single isomer, unassigned) [Compound 45b, (R or S)-1-(4-fluorophenethyl)-5-(2-(1-methylpyrrolidin-2-yl)phenyl)-1H-imidazole] | > 10000 nM | > 10000 nM | 2480 nM | 22.8 nM |  | > 10000 nM |

Reference: patent US9975888B2, “Aryl linked imidazole and triazole derivatives and methods of use thereof for improving the pharmacokinetics of a drug” (MERCK SHARP & DOHME CORP., priority 2013, dated 2018)
